From patent publication US11986540B2, “Compositions including pafolacianine for the identification of malignant lesions” (ON TARGET LABORATORIES, LLC., priority 2022, dated 2024)
Read-outs that look alike come from different tables or passages of the source.

Legend:
tumor = experiment: Tumor to background ratios with different mass doses; assay type: in vivo, human; conditions: dose of 0.025 mg per 1 kg bodyweight
Description: Tumor to background ratios were studied with different mass doses of pafolacianine.

[1] = Partitioning into red blood cells; assay type: in vitro ADME
[2] = tested on: panel of 55 pharmacologically-relevant receptors, ion channels and transporters; experiment: In vitro ligand binding screen (ExpresSProfile; Cerep); conditions: 5 μM
Experimental: Pafolacianine (5 μM) was evaluated in an in vitro ligand binding screen (ExpresSProfile; Cerep 100010238), which assessed the potential for pafolacianine “off-target” binding to a broad panel of 55 pharmacologically-relevant receptors, ion channels and transporters.

FR = biological target: T1, FR (Homo sapiens, UniProt P15328); experiment: [3H]-folic acid competition binding on KB cells
T1 construct: KB cells (a derivative of HeLa cells) that over-express FR; endogenous in cells; host or cells: KB cells (HeLa derivative)

[3] = tested on: FR-negative A549 cell tumor xenografts; experiment: Whole body imaging and tissue distribution, FR-negative A549 tumor xenografts; assay type: in vivo, mice
Experimental: (§1) The optimal dose range for pafolacianine with respect to tumor-to-background ratio in FR-positive tumor-bearing mice was 1 to 30 nmol/mouse, with lower fluorescence intensity observed in tumors at a lower dose (0.3 nmol) and higher fluorescence intensity observed in other tissues at doses above 30 nmol. In a second experiment, pafolacianine whole body imaging and tissue distribution was examined again; however, this experiment was performed in female nu/nu mice bearing FR-negative A549 cell tumor xenografts.

[4] = Pharmacokinetics in specific populations; assay type: in vivo; conditions: age 18-89 years, weight 41.6-133.6 kg, mild to moderate renal or hepatic impairment
[5] = tested on: FR-positive KB cell tumor xenografts; experiment: Whole body imaging and tissue distribution, FR-positive KB tumor xenografts; assay type: in vivo, mice
Experimental: Whole body imaging and tissue distribution of pafolacianine and OTL0039 was performed in female nu/nu mice bearing FR-positive KB cell tumor xenografts. […] This observation was consistent with the lower binding affinity of the D-isomer for FR compared with the L-isomer. Tumor fluorescence was brighter in mice receiving pafolacianine compared with other folate-conjugated near infrared dyes such as LS288, IR800 and ZW800.
as §1

[6] = Repeat once-weekly IV dose toxicokinetics in dogs; assay type: in vivo; conditions: for half-life / AUC(0-inf) / AUC(0-t) / C0 / clearance / Vd: dog, in vivo; for Vd: read-out: Vss
Experimental: Overall, drug concentrations increased with ascending dose, noting that the mean profiles at the two highest dose levels were overlapping. Systemic exposure (AUClast) to pafolacianine was approximately dose-proportional over the range of doses administered (0.9 to 13.9 mg/kg) and within the observed variability (Table 5). […] On both Day 0 and Day 13, CL was slow (relative to hepatic blood flow) and Vss was moderate. Mean T1/2 ranged from approximately 13 to 18 hours.

[7] = Plasma protein binding, equilibrium dialysis, dog plasma; assay type: in vitro ADME; conditions: Beagle, read-out: mean (±SD) percentage of plasma protein bound (converted)
Experimental: The plasma protein binding of pafolacianine was studied in vitro in fresh human, Sprague Dawley rat, and Beagle dog plasma using equilibrium dialysis. Pafolacianine was introduced into plasma samples, in duplicate, resulting in a final concentration of 5 μM. The mean (±SD) percentage of plasma protein bound pafolacianine was 99.1±0.1%, 98.6±0.1%, and 93.7±1.5% for rat, dog and human, respectively. Pafolacianine was highly bound to plasma protein in all species examined.

[8] = female, iv, 0.9 mg/kg, dogs F, 0.9 mg/kg once-weekly IV, Day 0
[9] = female, iv, 0.9 mg/kg, dogs F, 0.9 mg/kg once-weekly IV, Day 13
[10] = female, iv, 9.3 mg/kg, dogs F, 9.3 mg/kg once-weekly IV, Day 0
[11] = female, iv, 9.3 mg/kg, dogs F, 9.3 mg/kg once-weekly IV, Day 13
[12] = female, iv, 13.9 mg/kg, dogs F, 13.9 mg/kg once-weekly IV, Day 0
[13] = female, iv, 13.9 mg/kg, dogs F, 13.9 mg/kg once-weekly IV, Day 13
[14] = male, iv, 0.9 mg/kg, dogs M, 0.9 mg/kg once-weekly IV, Day 0
[15] = male, iv, 0.9 mg/kg, dogs M, 0.9 mg/kg once-weekly IV, Day 13
[16] = male, iv, 9.3 mg/kg, dogs M, 9.3 mg/kg once-weekly IV, Day 0
[17] = male, iv, 9.3 mg/kg, dogs M, 9.3 mg/kg once-weekly IV, Day 13
[18] = male, iv, 13.9 mg/kg, dogs M, 13.9 mg/kg once-weekly IV, Day 0
[19] = male, iv, 13.9 mg/kg, dogs M, 13.9 mg/kg once-weekly IV, Day 13

T1 sequence (P15328 25-234): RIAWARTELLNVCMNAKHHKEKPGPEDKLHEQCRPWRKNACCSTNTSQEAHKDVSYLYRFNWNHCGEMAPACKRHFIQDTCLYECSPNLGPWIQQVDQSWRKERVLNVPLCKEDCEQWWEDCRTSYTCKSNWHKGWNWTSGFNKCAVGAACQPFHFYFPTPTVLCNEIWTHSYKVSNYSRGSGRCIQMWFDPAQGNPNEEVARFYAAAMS

SMILES: CC1(C)C(=CC=C2CCCC(C=CC3=[N+](CCCCS(=O)(=O)[O-])c4ccc(S(=O)(=O)O)cc4C3(C)C)=C2Oc2ccc(CC(NC(=O)c3ccc(NCc4cnc5nc(N)[nH]c(=O)c5n4)cc3)C(=O)O)cc2)N(CCCCS(=O)(=O)O)c2ccc(S(=O)(=O)O)cc21 (stereo not drawn) [pafolacianine]
- tumor to background ratio (tumor): High
- partitioning into red blood cells [1]: No notable partitioning
- affinity to off-target proteins [2]: no significant affinity
- competition with [3H]-folic acid for the receptor (FR): competed well
- fluorescence in FR-negative tumors [3]: no fluorescence observed
- fluorescence in kidneys [3]: fluorescence was primarily noted in kidneys
- differences in pharmacokinetics by age, weight, renal or hepatic impairment [4]: No clinically significant differences
- fluorescence in all other normal tissues ([5]; 2.5 hours after IV 10 nmol): little or no fluorescence signal
- fluorescence in kidneys ([5]; 2.5 hours after IV 10 nmol): fluorescence signal also observed in the kidneys
- fluorescence in tumors ([5]; 2.5 hours after IV 10 nmol): fluorescence primarily in the tumors
- tumor-to-normal tissue fluorescence ratios ([5]; 2.5 hours after IV 10 nmol): excellent
- tumor fluorescence compared with other folate-conjugated near infrared dyes (LS288, IR800, ZW800) ([5]; mouse, in vivo): brighter
- half-life ([6]; both sexes, intravenous, dogs, all doses and days, read-out: Mean T1/2 range): 13 to 18 h
- DN AUClast ([6]; dogs F, 0.9 mg/kg once-weekly IV, Day 0): 9.34 (μg · h/ml) (mg/kg)
- DN AUClast ([6]; dogs F, 0.9 mg/kg once-weekly IV, Day 13): 7.36 (μg · h/ml) (mg/kg)
- DN AUClast ([6]; dogs F, 9.3 mg/kg once-weekly IV, Day 0): 5.46 (μg · h/ml) (mg/kg)
- DN AUClast ([6]; dogs F, 9.3 mg/kg once-weekly IV, Day 13): 6.21 (μg · h/ml) (mg/kg)
- DN AUClast ([6]; dogs F, 13.9 mg/kg once-weekly IV, Day 0): 5.74 (μg · h/ml) (mg/kg)
- DN AUClast ([6]; dogs F, 13.9 mg/kg once-weekly IV, Day 13): 6.81 (μg · h/ml) (mg/kg)
- DN AUClast ([6]; dogs M, 0.9 mg/kg once-weekly IV, Day 0): 5.27 (μg · h/ml) (mg/kg)
- DN AUClast ([6]; dogs M, 0.9 mg/kg once-weekly IV, Day 13): 5.64 (μg · h/ml) (mg/kg)
- DN AUClast ([6]; dogs M, 9.3 mg/kg once-weekly IV, Day 0): 6.24 (μg · h/ml) (mg/kg)
- DN AUClast ([6]; dogs M, 9.3 mg/kg once-weekly IV, Day 13): 7.03 (μg · h/ml) (mg/kg)
- DN AUClast ([6]; dogs M, 13.9 mg/kg once-weekly IV, Day 0): 5.65 (μg · h/ml) (mg/kg)
- DN AUClast ([6]; dogs M, 13.9 mg/kg once-weekly IV, Day 13): 6.18 (μg · h/ml) (mg/kg)
- accumulation or changes in TK after repeated dosing ([6]; dogs, once-weekly dosing for 3 weeks): no accumulation or changes in TK were evident
- AUC(0-inf) [6, 8]: 10500 ng·h/mL
- AUC(0-t) [6, 8]: 8400 ng·h/mL
- C0 [6, 8]: 4.75 µg/mL
- clearance [6, 8]: 1.59 mL/min/kg
- half-life ([6]; female, iv, 0.9 mg/kg, dogs F, 0.9 mg/kg once-weekly IV, Day 0, read-out: T1/2 (converted)): 15 h
- Vd [6, 8]: 1.47 L/kg
- AUC(0-inf) [6, 9]: 8420 ng·h/mL
- AUC(0-t) [6, 9]: 6630 ng·h/mL
- C0 [6, 9]: 8.92 µg/mL
- clearance [6, 9]: 1.8 mL/min/kg
- half-life ([6]; female, iv, 0.9 mg/kg, dogs F, 0.9 mg/kg once-weekly IV, Day 13, read-out: T1/2 (converted)): 13.1 h
- Vd [6, 9]: 1.49 L/kg
- AUC(0-inf) [6, 10]: 69300 ng·h/mL
- AUC(0-t) [6, 10]: 50800 ng·h/mL
- C0 [6, 10]: 54.9 µg/mL
- clearance [6, 10]: 2.35 mL/min/kg
- half-life ([6]; female, iv, 9.3 mg/kg, dogs F, 9.3 mg/kg once-weekly IV, Day 0, read-out: T1/2 (converted)): 15.2 h
- Vd [6, 10]: 2.38 L/kg
- AUC(0-inf) [6, 11]: 76600 ng·h/mL
- AUC(0-t) [6, 11]: 57700 ng·h/mL
- C0 [6, 11]: 67.8 µg/mL
- clearance [6, 11]: 2.11 mL/min/kg
- half-life ([6]; female, iv, 9.3 mg/kg, dogs F, 9.3 mg/kg once-weekly IV, Day 13, read-out: T1/2 (converted)): 14.3 h
- Vd [6, 11]: 1.94 L/kg
- AUC(0-inf) [6, 12]: 109000 ng·h/mL
- AUC(0-t) [6, 12]: 79800 ng·h/mL
- C0 [6, 12]: 79.6 µg/mL
- clearance [6, 12]: 2.15 mL/min/kg
- half-life ([6]; female, iv, 13.9 mg/kg, dogs F, 13.9 mg/kg once-weekly IV, Day 0, read-out: T1/2 (converted)): 15.3 h
- Vd [6, 12]: 2.2 L/kg
- AUC(0-inf) [6, 13]: 129000 ng·h/mL
- AUC(0-t) [6, 13]: 94700 ng·h/mL
- C0 [6, 13]: 104 µg/mL
- clearance [6, 13]: 1.81 mL/min/kg
- half-life ([6]; female, iv, 13.9 mg/kg, dogs F, 13.9 mg/kg once-weekly IV, Day 13, read-out: T1/2 (converted)): 15.3 h
- Vd [6, 13]: 1.83 L/kg
- AUC(0-inf) [6, 14]: 6400 ng·h/mL
- AUC(0-t) [6, 14]: 4740 ng·h/mL
- C0 [6, 14]: 4.66 µg/mL
- clearance [6, 14]: 2.39 mL/min/kg
- half-life ([6]; male, iv, 0.9 mg/kg, dogs M, 0.9 mg/kg once-weekly IV, Day 0, read-out: T1/2 (converted)): 14.8 h
- Vd [6, 14]: 2.31 L/kg
- AUC(0-inf) [6, 15]: 7360 ng·h/mL
- AUC(0-t) [6, 15]: 5070 ng·h/mL
- C0 [6, 15]: 5.73 µg/mL
- clearance [6, 15]: 2.09 mL/min/kg
- half-life ([6]; male, iv, 0.9 mg/kg, dogs M, 0.9 mg/kg once-weekly IV, Day 13, read-out: T1/2 (converted)): 17.6 h
- Vd [6, 15]: 2.42 L/kg
- AUC(0-inf) [6, 16]: 81200 ng·h/mL
- AUC(0-t) [6, 16]: 58000 ng·h/mL
- C0 [6, 16]: 62.1 µg/mL
- clearance [6, 16]: 1.92 mL/min/kg
- half-life ([6]; male, iv, 9.3 mg/kg, dogs M, 9.3 mg/kg once-weekly IV, Day 0, read-out: T1/2 (converted)): 16.4 h
- Vd [6, 16]: 2.1 L/kg
- AUC(0-inf) [6, 17]: 85100 ng·h/mL
- AUC(0-t) [6, 17]: 65400 ng·h/mL
- C0 [6, 17]: 72.6 µg/mL
- clearance [6, 17]: 1.84 mL/min/kg
- half-life ([6]; male, iv, 9.3 mg/kg, dogs M, 9.3 mg/kg once-weekly IV, Day 13, read-out: T1/2 (converted)): 13.3 h
- Vd [6, 17]: 1.6 L/kg
- AUC(0-inf) [6, 18]: 110000 ng·h/mL
- AUC(0-t) [6, 18]: 78500 ng·h/mL
- C0 [6, 18]: 81.8 µg/mL
- clearance [6, 18]: 2.13 mL/min/kg
- half-life ([6]; male, iv, 13.9 mg/kg, dogs M, 13.9 mg/kg once-weekly IV, Day 0, read-out: T1/2 (converted)): 16.2 h
- Vd [6, 18]: 2.35 L/kg
- AUC(0-inf) [6, 19]: 117000 ng·h/mL
- AUC(0-t) [6, 19]: 85900 ng·h/mL
- C0 [6, 19]: 108 µg/mL
- clearance [6, 19]: 2 mL/min/kg
- half-life ([6]; male, iv, 13.9 mg/kg, dogs M, 13.9 mg/kg once-weekly IV, Day 13, read-out: T1/2 (converted)): 15 h
- Vd [6, 19]: 2.02 L/kg
- fraction unbound at 5 μM [7]: 0.014
